Data: PMC9181899, “Synthesis and Anticancer Properties of New 3-Methylidene-1-sulfonyl-2,3-dihydroquinolin-4(1H)-ones” (Molecules, 2022)

Columns and labels:
HUVEC cells = assay: MTT in vitro cytotoxicity assay, HUVEC (normal cells); format: cell-based, human; settings: Homo sapiens, HUVEC, 48 h incubation, mean ± SEM
Procedure: The promyelocytic leukemia HL-60 and breast cancer adenocarcinoma MCF-7 cell lines were purchased from the European Collection of Cell Cultures (ECACC). Leukemia cells were cultured in RPMI 1640 plus GlutaMax I medium (Gibco/Life Technologies, Carlsbad, CA, USA). MCF-7 cells were maintained in Minimum Essential Medium Eagle (Sigma Aldrich, St. Louis, MO, USA) and supplemented with 2 mM glutamine and men non-essential amino acid solution (Sigma Aldrich, St. Louis, MO, USA). Both media were supplemented with 10% heat-inactivated fetal bovine serum (Biological Industries, Beit-Haemek, Israel) and antibiotics (100 U/mL penicillin and 100 μg/mL streptomycin) (Sigma-Aldrich, St. Louis, MO, USA). Human umbilical vein endothelial cells (HUVECs) were purchased from the American Type Culture Collection (ATCC). Cells were cultured using EGM-2 Endothelial Medium BulletKit purchased from Lonza (Lonza, Walkersville, MD, USA). Cells were maintained at 37 °C in 5% CO2 atmosphere and grown until 80% confluent.
The tested compounds were dissolved in sterile dimethyl sulfoxide (DMSO) and further diluted with culture medium. The final concentration of DMSO in cell cultures was less than 0.1% v/v. Controls without and with 0.1% DMSO were performed in each experiment. At the used concentration, DMSO had no effect on the observed parameters.
The MTT (3-(4,5-dimethylthiazol-2-yl)-2,5-diphenyltetrazolium bromide) assay, which measures the activity of cellular dehydrogenases, was performed according to the Mosmann method. Exponentially growing cells were seeded into 24-well plates at a density of 8 × 10^4 cells/mL and left to grow for 24 h. After 24 h or 48 h of incubation with various concentrations of the tested compounds (dissolved in DMSO and diluted with complete culture medium), cells were incubated with 0.1 mL of MTT solution (5 mg/mL in phosphate buffered saline) for 1.5 h. The metabolically active cells reduced MTT to blue formazan crystals. The plates were centrifuged, and the supernatant was discarded. DMSO (1 mL) was added to each well to dissolve the crystals, whose absorbance was measured at 560 nm using FlexStation 3 Multi-Mode Microplate Reader (Molecular Devices, LLC, San Jose, CA, USA). The untreated cells were used as control. The IC50 values were calculated from the concentration–response curves. The data were expressed as mean ± SEM of three independent experiments.

HL-60 cells [1] = assay: Cell proliferation by BrdU incorporation, flow cytometry; format: cell-based; settings: 1.8 µM
Procedure: (§1) To evaluate the anticancer potential of 5a, the ability of this compound to inhibit cell proliferation, induce apoptotic cell death, and generate DNA damage was examined by flow cytometry using the ‘Apoptosis, DNA Damage, and Cell Proliferation Kit’ (BD Bioscience). After 24 h treatment with 5a in increasing concentrations, HL-60 cells were exposed to bromodeoxyuridine (BrdU) for additional 8 h. Then, the cells were simultaneously stained with fluorochrome-labeled anti-BrdU, anti-cleaved PARP (Asp214) and anti-H2AX (pS139).
BrdU is an analog of thymidine, and its incorporation into DNA was used as an index of cell proliferation. […] At 1.8 µM concentration, this analog caused a 2.2-fold decrease in BrdU incorporation (Figure 4a).
Cell proliferation, DNA damage, and apoptotic cell death were determined using Apoptosis, DNA Damage, and Cell Proliferation Kit (BD Bioscience, San Jose, CA, USA), according to the manufacturer protocol. Briefly, HL-60 cells were seeded in 6-well plates (4.0 × 10^5 cells/mL) in 2 mL of growth medium and treated with 5a for 24 h. […] Next, the cells were collected by centrifugation (300× g, 5 min), counted, fixed, and permeabilized according to the manufacturer’s instructions. […] After washing, DNA staining with DAPI (1 µg/mL of the staining buffer) was performed, and the cells were analyzed by flow cytometry using CytoFLEX (Beckman Coulter, Inc., Brea, CA, USA).

HL-60 cells [2] = assay: Apoptosis by cleaved PARP (Asp214) staining, flow cytometry; format: cell-based; settings: 1.8 µM, 24 h, Figure 3b
Procedure: as §1
To check whether the cytotoxic effect of 5a was associated with the induction of apoptosis, the pro-apoptotic activity of this compound was investigated. Apoptosis regulation is triggered by the activation of caspases. Caspase-3, an effector caspase, cleaves a number of vital proteins, leading to cell death. The activity of caspase-3 was assessed by flow cytometry using fluorochrome-labeled antibodies recognizing 89 kDa-cleaved PARP fragments released from PARP by caspase-3 in the executive stage of apoptosis.
Cell proliferation, DNA damage, and apoptotic cell death were determined using Apoptosis, DNA Damage, and Cell Proliferation Kit (BD Bioscience, San Jose, CA, USA), according to the manufacturer protocol. Briefly, HL-60 cells were seeded in 6-well plates (4.0 × 10^5 cells/mL) in 2 mL of growth medium and treated with 5a for 24 h. Afterwards, the bromodeoxyuridine (BrdU, 10 µM) was added and the cells were incubated for additional 8 h. Next, the cells were collected by centrifugation (300× g, 5 min), counted, fixed, and permeabilized according to the manufacturer’s instructions. The cells were incubated with DNase (300 µg/mL in PBS) for 1 h at 37 °C and then simultaneously stained with fluorochrome-labeled anti-BrdU, H2AX (pS139), and cleaved PARP (Asp214) antibodies, for 20 min at room temperature. After washing, DNA staining with DAPI (1 µg/mL of the staining buffer) was performed, and the cells were analyzed by flow cytometry using CytoFLEX (Beckman Coulter, Inc., Brea, CA, USA).

HL-60 cells [3] = assay: Apoptosis by FITC-Annexin V and PI double-staining, flow cytometry; format: cell-based; settings: 1.8 µM, 24 h
Procedure: Pro-apoptotic activity of 5a was also confirmed using FITC-Annexin V and PI double-staining, based on the loss of plasma membrane asymmetry (phosphatidylserine externalization), which is a marker of the earlier stages of apoptosis.
Apoptotic cell death was determined using FITC-Annexin V Apoptosis Detection Kit I (BD Bioscience, San Jose, CA, USA). Briefly, HL-60 cells were seeded in the 6-well plates (4.0 × 10^5 cells/well) in 2 mL of the culture medium and treated with […] for 24 h. Afterwards, the cells were collected by centrifugation (300× g, 5 min), washed with PBS, re-suspended in binding buffer and stained with FITC-conjugated annexin V and propidium iodide (PI) according to the manufacturer guidelines (15 min, at room temperature). The samples were analyzed by flow cytometry using CytoFLEX (Beckman Coulter, Inc., Brea, CA, USA). Data analysis was performed using Kaluza Analysis Software v2 (Beckman Coulter, Inc., Brea, CA, USA).

C=C1C(=O)c2ccccc2N(S(=O)(=O)c2ccccc2)C1CC (stereo not shown) [Compound 5a, 2-Ethyl-3-methylidene-1-(phenylsulfonyl)-2,3-dihydroquinolin-4(1H)-one]
IC50 (HUVEC cells): 1870 ± 20 nM | BrdU positive cells (representative plot) (HL-60 cells [1]; 24 h, Figure 3a): 17.5% | decrease in BrdU incorporation (HL-60 cells [1]; 24 h treatment then BrdU 8 h, vs control): 2.2 fold | Q3: H2AX (pS139) and cleaved PARP negative cells (representative plot) (HL-60 cells [2]): 66.8% | Q4: cleaved PARP positive, H2AX (pS139) negative cells (representative plot) (HL-60 cells [2]): 15.0% | early apoptotic cell fraction (Annexin V-positive) (HL-60 cells [3]): up to 13.9% | late apoptotic cell fraction (Annexin V- and PI-positive) (HL-60 cells [3]): ≤ 13.7%
